These results are taken from US20250270191A1, “QUINOLONE BCL6 BIFUNCTIONAL DEGRADERS” (Treeline Biosciences, Inc., priority 2022, published 2025).

The target of this assay is T1, Human BCL6 protein (N-terminal HiBiT tagged BCL6 in HT1080 cells) (Homo sapiens, UniProt P41182+Q96SW2).
T1 construct: Human BCL6 protein coding open reading frame; expressed in transfected cells; host or cells: HT1080 (ATCC CCL-121), stably transduced with lentivirus pLV-UBC-N-HiBiT-BCL6-PGK-puro
Briefly: HiBiT based BCL6 degradation assay. Type of assay: cell-based. Particulars: HT1080 cells expressing N-terminal HiBiT tagged BCL6; 5 hours incubation; BCL6 degradation normalized with DMSO control. An excerpt: Human BCL6 protein coding open reading frame fused with N-terminal HiBiT coding sequence was synthesized from Integrated DNA Technologies (IDT). Next, the N-HiBiT-BCL6 sequence was cloned into pLV-UBC-PGK-Puro, a lentivirus plasmid purchased from Vectorbuilder, to generate pLV-UBC-N-HiBiT-BCL6-PGK-puro. Lentiviral particles were generated from Lenti-X™ 293T cells (Clontech) by co-transfection of pLV-UBC-N-HiBiT-BCL6-PGK-puro plasmids and lentiviral packaging plasmid mix (Cellecta). HT1080 [HT1080] (ATCC CCL-121) cells were infected with the lentivirus, and HT1080 cells stably integrated with the lentiviral vectors were established by incubation with 1 μg/mL puromycin (Thermofisher).
HT1080 cells expressing N-terminal HiBiT tagged BCL6 were dispensed into a 384-well plate pre-spotted with compounds at varying concentrations. Five thousand cells were seeded into each well in 40 μL of RPMI 1640 media plus 10% Fetal Bovine Serum (10082-147, Thermofisher). After 5 hours of incubation at 37° C. with 5% CO2, 30 μL of the NANO-GLO® HiBiT Lytic Detection System working solution (Promega) was added to each well and incubated at room temperature for 15 min. After incubation, luminescence was read on a PHERAstar FSX Plate Reader (BMG). BCL6 degradation at each indicated concentration was normalized with DMSO control. The BCL6 degradation curves were plotted using a four-parameter logistic model.
(In general: With HiBiT, luminescence reflects the tagged protein that the partner subunit can reach.)

For `CNC(=O)COc1cc2cc(Nc3nc(N4CCC(CNc5ccc(C6CCC(=O)NC6=O)cc5)CC4)ncc3Cl)ccc2n(C)c1=O` (stereo not drawn) [Compound 265, 2-((6-((5-chloro-2-(4-(((4-(2,6-dioxopiperidin-3-yl)phenyl)amino)methyl)piperidin-1-yl)pyrimidin-4-yl)amino)-1-methyl-2-oxo-1,2-dihydroquinolin-3-yl)oxy)-N-methylacetamide], the “Ymin (5 hr)” value is reported as “++ (50% < Ymin ≤ 70%)”.

Turning to `CNC(=O)COc1cc2cc(Nc3nc(N4CCC[C@@H](CNc5cccc6c(C7CCC(=O)NC7=O)nn(C)c56)C4)ncc3Cl)ccc2n(C)c1=O` (stereo partly drawn) [Compound 266a, 2-((6-((5-chloro-2-((3S)-3-(((3-(2,6-dioxopiperidin-3-yl)-1-methyl-1H-indazol-7-yl)amino)methyl)piperidin-1-yl)pyrimidin-4-yl)amino)-1-methyl-2-oxo-1,2-dihydroquinolin-3-yl)oxy)-N-methylacetamide], the “Ymin (5 hr)” value is listed as “++ (50% < Ymin ≤ 70%)”.

`CNC(=O)COc1cc2cc(Nc3nc(N4CCC[C@H](CNc5cccc6c(C7CCC(=O)NC7=O)nn(C)c56)C4)ncc3Cl)ccc2n(C)c1=O` (stereo partly drawn) [Compound 266b, 2-((6-((5-chloro-2-((3R)-3-(((3-(2,6-dioxopiperidin-3-yl)-1-methyl-1H-indazol-7-yl)amino)methyl)piperidin-1-yl)pyrimidin-4-yl)amino)-1-methyl-2-oxo-1,2-dihydroquinolin-3-yl)oxy)-N-methylacetamide]: the “Ymin (5 hr)” value is recorded as “++ (50% < Ymin ≤ 70%)”.

Turning to `CNC(=O)COc1cc2cc(Nc3nc(N4CCC[C@H](CNc5cccc(C6CCC(=O)NC6=O)c5)C4)ncc3Cl)ccc2n(C)c1=O` (stereo partly drawn) [Compound 275a, 2-((6-((5-chloro-2-((3R)-3-(((3-(2,6-dioxopiperidin-3-yl)phenyl)amino)methyl)piperidin-1-yl)pyrimidin-4-yl)amino)-1-methyl-2-oxo-1,2-dihydroquinolin-3-yl)oxy)-N-methylacetamide], the “Ymin (5 hr)” value was “+ (Ymin > 70%)”.

As for `CNC(=O)COc1cc2cc(Nc3nc(N4CCC[C@@H](CNc5cccc(C6CCC(=O)NC6=O)c5)C4)ncc3Cl)ccc2n(C)c1=O` (stereo partly drawn) [Compound 275b, 2-((6-((5-chloro-2-((3S)-3-(((3-(2,6-dioxopiperidin-3-yl)phenyl)amino)methyl)piperidin-1-yl)pyrimidin-4-yl)amino)-1-methyl-2-oxo-1,2-dihydroquinolin-3-yl)oxy)-N-methylacetamide], the “Ymin (5 hr)” value is “++ (50% < Ymin ≤ 70%)”.

Take `CNC(=O)COc1cc2cc(Nc3nc(NC[C@H]4CC[C@H](Nc5ccc(C6CCC(=O)NC6=O)cc5)CC4)ncc3Cl)ccc2n(C)c1=O` (stereo partly drawn) [Compound 277a, 2-((6-((5-chloro-2-((((1r,4r)-4-((4-(2,6-dioxopiperidin-3-yl)phenyl)amino)cyclohexyl)methyl)amino)pyrimidin-4-yl)amino)-1-methyl-2-oxo-1,2-dihydroquinolin-3-yl)oxy)-N-methylacetamide]: the “Ymin (5 hr)” value is on record as “+ (Ymin > 70%)”.

For `CNC(=O)COc1cc2cc(Nc3nc(NC[C@H]4CC[C@@H](Nc5ccc(C6CCC(=O)NC6=O)cc5)CC4)ncc3Cl)ccc2n(C)c1=O` (stereo partly drawn) [Compound 277b, 2-((6-((5-chloro-2-((((1s,4s)-4-((4-(2,6-dioxopiperidin-3-yl)phenyl)amino)cyclohexyl)methyl)amino)pyrimidin-4-yl)amino)-1-methyl-2-oxo-1,2-dihydroquinolin-3-yl)oxy)-N-methylacetamide], the “Ymin (5 hr)” value is recorded as “++ (50% < Ymin ≤ 70%)”.

Take `CNC(=O)COc1cc2cc(Nc3nc(N4CCC[C@H]4CNc4ccc5c(C6CCC(=O)NC6=O)nn(C)c5c4)ncc3Cl)ccc2n(C)c1=O` (stereo partly drawn) [Compound 279a, 2-((6-((5-chloro-2-((2S)-2-(((3-(2,6-dioxopiperidin-3-yl)-1-methyl-1H-indazol-6-yl)amino)methyl)pyrrolidin-1-yl)pyrimidin-4-yl)amino)-1-methyl-2-oxo-1,2-dihydroquinolin-3-yl)oxy)-N-methylacetamide]: the “Ymin (5 hr)” value is on record as “++ (50% < Ymin ≤ 70%)”.

As for `CNC(=O)COc1cc2cc(Nc3nc(N4CCC[C@@H]4CNc4ccc5c(C6CCC(=O)NC6=O)nn(C)c5c4)ncc3Cl)ccc2n(C)c1=O` (stereo partly drawn) [Compound 279b, 2-((6-((5-chloro-2-((2R)-2-(((3-(2,6-dioxopiperidin-3-yl)-1-methyl-1H-indazol-6-yl)amino)methyl)pyrrolidin-1-yl)pyrimidin-4-yl)amino)-1-methyl-2-oxo-1,2-dihydroquinolin-3-yl)oxy)-N-methylacetamide], the “Ymin (5 hr)” value is given as “+++ (25% < Ymin ≤ 50%)”.

For `CNC(=O)COc1cc2cc(Nc3nc(N4CCC[C@H](Nc5ccc6c(C7CCC(=O)NC7=O)nn(C)c6c5)C4)ncc3Cl)ccc2n(C)c1=O` (stereo partly drawn) [Compound 280a, 2-((6-((5-chloro-2-((3S)-3-((3-(2,6-dioxopiperidin-3-yl)-1-methyl-1H-indazol-6-yl)amino)piperidin-1-yl)pyrimidin-4-yl)amino)-1-methyl-2-oxo-1,2-dihydroquinolin-3-yl)oxy)-N-methylacetamide], the “Ymin (5 hr)” value was “++ (50% < Ymin ≤ 70%)”.

For the compound `CNC(=O)COc1cc2cc(Nc3nc(N4CCC[C@@H](Nc5ccc6c(C7CCC(=O)NC7=O)nn(C)c6c5)C4)ncc3Cl)ccc2n(C)c1=O` (stereo partly drawn) [Compound 280b, 2-((6-((5-chloro-2-((3R)-3-((3-(2,6-dioxopiperidin-3-yl)-1-methyl-1H-indazol-6-yl)amino)piperidin-1-yl)pyrimidin-4-yl)amino)-1-methyl-2-oxo-1,2-dihydroquinolin-3-yl)oxy)-N-methylacetamide], the “Ymin (5 hr)” value is “+ (Ymin > 70%)”.

As for `CNC(=O)COc1cc2cc(Nc3nc(N4CCC(CC5CCN(c6cccc7c(C8CCC(=O)NC8=O)nn(C)c67)CC5)CC4)ncc3Cl)ccc2n(C)c1=O` (stereo not drawn) [Compound 281, 2-((6-((5-chloro-2-(4-((1-(3-(2,6-dioxopiperidin-3-yl)-1-methyl-1H-indazol-7-yl)piperidin-4-yl)methyl)piperidin-1-yl)pyrimidin-4-yl)amino)-1-methyl-2-oxo-1,2-dihydroquinolin-3-yl)oxy)-N-methylacetamide], the “Ymin (5 hr)” value is listed as “+++ (25% < Ymin ≤ 50%)”.

Consider `CNC(=O)COc1cc2cc(Nc3nc(N4CCN(C5CN(c6ccc7c(C8CCC(=O)NC8=O)nn(C)c7c6)C5)CC4)ncc3Cl)ccc2n(C)c1=O` (stereo not drawn) [Compound 282, 2-((6-((5-chloro-2-(4-(1-(3-(2,6-dioxopiperidin-3-yl)-1-methyl-1H-indazol-6-yl)azetidin-3-yl)piperazin-1-yl)pyrimidin-4-yl)amino)-1-methyl-2-oxo-1,2-dihydroquinolin-3-yl)oxy)-N-methylacetamide], for which the “Ymin (5 hr)” value is “+++ (25% < Ymin ≤ 50%)”.

Regarding `CNC(=O)COc1cc2cc(Nc3nc(N4CCN(C5CN(c6cccc7c(C8CCC(=O)NC8=O)nn(C)c67)C5)CC4)ncc3Cl)ccc2n(C)c1=O` (stereo not drawn) [Compound 283, 2-((6-((5-chloro-2-(4-(1-(3-(2,6-dioxopiperidin-3-yl)-1-methyl-1H-indazol-7-yl)azetidin-3-yl)piperazin-1-yl)pyrimidin-4-yl)amino)-1-methyl-2-oxo-1,2-dihydroquinolin-3-yl)oxy)-N-methylacetamide], the “Ymin (5 hr)” value was “+++ (25% < Ymin ≤ 50%)”.

As for `CNC(=O)COc1cc2cc(Nc3nc(N4CCC(CCNc5ccc(C6CCC(=O)NC6=O)cc5)CC4)ncc3Cl)ccc2n(C)c1=O` (stereo not drawn) [Compound 284, 2-((6-((5-chloro-2-(4-(2-((4-(2,6-dioxopiperidin-3-yl)phenyl)amino)ethyl)piperidin-1-yl)pyrimidin-4-yl)amino)-1-methyl-2-oxo-1,2-dihydroquinolin-3-yl)oxy)-N-methylacetamide], the “Ymin (5 hr)” value is listed as “++ (50% < Ymin ≤ 70%)”.

As for `CNC(=O)COc1cc2cc(Nc3nc(N4CCC(C5CN(c6cccc7c(C8CCC(=O)NC8=O)nn(C)c67)C5)CC4)ncc3Cl)ccc2n(C)c1=O` (stereo not drawn) [Compound 286, 2-((6-((5-chloro-2-(4-(1-(3-(2,6-dioxopiperidin-3-yl)-1-methyl-1H-indazol-7-yl)azetidin-3-yl)piperidin-1-yl)pyrimidin-4-yl)amino)-1-methyl-2-oxo-1,2-dihydroquinolin-3-yl)oxy)-N-methylacetamide], the “Ymin (5 hr)” value is recorded as “+++ (25% < Ymin ≤ 50%)”.

For the compound `CNC(=O)COc1cc2cc(Nc3nc(N4CCC(OC5CCN(c6ccc7c(C8CCC(=O)NC8=O)nn(C)c7c6)CC5)CC4)ncc3Cl)ccc2n(C)c1=O` (stereo not drawn) [Compound 287, 2-((6-((5-chloro-2-(4-((1-(3-(2,6-dioxopiperidin-3-yl)-1-methyl-1H-indazol-6-yl)piperidin-4-yl)oxy)piperidin-1-yl)pyrimidin-4-yl)amino)-1-methyl-2-oxo-1,2-dihydroquinolin-3-yl)oxy)-N-methylacetamide], the “Ymin (5 hr)” value is given as “+++ (25% < Ymin ≤ 50%)”.

Turning to `CNC(=O)COc1cc2cc(Nc3nc(N4CCC(CC5CCN(c6ccc7c(C8CCC(=O)NC8=O)nn(C)c7c6)CC5)CC4)ncc3Cl)ccc2n(C)c1=O` (stereo not drawn) [Compound 288, 2-((6-((5-chloro-2-(4-((1-(3-(2,6-dioxopiperidin-3-yl)-1-methyl-1H-indazol-6-yl)piperidin-4-yl)methyl)piperidin-1-yl)pyrimidin-4-yl)amino)-1-methyl-2-oxo-1,2-dihydroquinolin-3-yl)oxy)-N-methylacetamide], the “Ymin (5 hr)” value was “+++ (25% < Ymin ≤ 50%)”.
